Reference: ChEMBL document CHEMBL3137667, “[Drug-induced liver injury; fourteenth updated edition of the bibliographic database of liver injuries and related drugs]” (Gastroenterol Clin Biol, 2004)

What was measured:
[1] = human
[2] = human; remark: listed apart in the source
[3] = Comments (NB not yet translated). [column 'COMMENTAIRES' in source]; settings: human
[4] = Times to onset, minimal and maximal, observed in the indexed observations. [column 'DELAI' in source]; settings: human
[5] = human, serum, 4383 h
[6] = Highest frequency of acute liver toxicity observed during clinical trials, expressed as a percentage. [column '% AIGUE' in source]; settings: human
[7] = human, serum
[8] = human; remark: listed apart in the source
[9] = human, serum; remark: listed apart in the source
[10] = human; remark: listed apart in the source
[11] = Proposed mechanism(s) of liver damage. [column 'MEC' in source]; settings: human
[12] = human; remark: listed apart in the source
[13] = Highest frequency of moderate liver toxicity observed during clinical trials, expressed as a percentage. [column '% BIOL' in source]; settings: human
[14] = human; remark: listed apart in the source
[15] = human; remark: listed apart in the source
[16] = human; remark: listed apart in the source
[17] = human; remark: listed apart in the source
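Throughout, for Hepatotoxicity (association with vascular disease): count of indexed literature references reporting vascular liver injury in humans, e.g. peliosis hepatitis, hepatic veno-occlusive disease or Budd-Chiari syndrome.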
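Throughout, for Hepatotoxicity (benign tumour): value is a count of indexed literature references citing a benign tumour confirmed by histopathology.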
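Throughout, for Hepatotoxicity (choleostasis): human cholestatic liver injury, shown by histopathology or by peak ALT or AST elevation over alkaline phosphatase ratio below 2, value counts indexed literature reports.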
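Throughout, for Hepatotoxicity (chronic liver disease): chronic liver injury confirmed by histopathology or persistently raised serum aminotransferase activity beyond 6 months, value given as the count of indexed literature references.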
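Throughout, for Hepatotoxicity (cirrhosis): value is a count of indexed literature references reporting cirrhosis confirmed by histopathology.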
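Throughout, for Hepatotoxicity (cytolytic): human cytolytic liver injury, shown by histopathology or by a ratio above 5 of peak ALT or AST elevation to alkaline phosphatase elevation, value counts indexed references.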
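Throughout, for Hepatotoxicity (granulomatous hepatitis): value is a count of indexed literature references reporting granulomatous liver disease confirmed by histopathology.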
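Throughout, for Hepatotoxicity (malignant tumour): malignant tumour confirmed by histopathology, value gives the count of indexed literature references reporting it.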
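Throughout, for Hepatotoxicity (severe hepatitis): human clinical data: severe hepatitis, meaning potentially life-threatening liver failure or clinically observed cases, the value counts how many indexed literature references report it.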
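Throughout, for Hepatotoxicity (steatosis): steatosis confirmed by histopathology, value is the count of indexed references.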

SMILES | Hepatotoxicity (association with vascular disease) [1] | Hepatotoxicity (cirrhosis) [2] | Hepatotoxicity (comment) [3] | Hepatotoxicity (time to onset) [4] | Hepatotoxicity (chronic liver disease) [5] | Hepatotoxicity (acute) ([6]; Liver) [%] | Hepatotoxicity (moderate) [7] | Hepatotoxicity (acute) [9] | Hepatotoxicity (malignant tumour) [10] | Hepatotoxicity (moderate) ([13]; Liver) [%] | Hepatotoxicity (severe hepatitis) ([14]; Liver) | Hepatotoxicity (benign tumour) [16] | Hepatotoxicity (steatosis) [17] | Hepatotoxicity (acute) [6] [%] | Hepatotoxicity (cytolytic) [8] | Hepatotoxicity (mechanism) [11] | Hepatotoxicity (granulomatous hepatitis) [12] | Hepatotoxicity (moderate) [13] [%] | Hepatotoxicity (severe hepatitis) [14] | Hepatotoxicity (choleostasis) [15] | other results
O=C(O)c1cc(-c2ccc(F)cc2F)ccc1O [DIFLUNISAL] | 0 | 0 | AC_ANTI-ML | 1 week - 1 month | 0 | 0 | 2 | 5 | 0 | 5 | 0 | 0 | 0 | – | – | – | – | – | – | – | Hepatotoxicity (cytolytic) ([8]; Liver): 2; Hepatotoxicity (mechanism) ([11]; Liver): Allergic; Hepatotoxicity (granulomatous hepatitis) ([12]; Liver): 1; Hepatotoxicity (choleostasis) ([15]; Liver): 4
C[C@H]1c2cccc(O)c2C(=O)C2=C(O)[C@]3(O)C(=O)C(C(N)=O)=C(O)[C@@H](N(C)C)[C@@H]3[C@@H](O)[C@@H]21.O [DOXYCYCLINE] | 0 | 0 | CHOLESTASE_PROLONGEE DUCTOPENIE | 1 day - 12 years | 1 | – | 8 | 5 | 0 | – | – | 0 | 2 | 0 | 1 | Allergic | 0 | 10 | 1 | 3 | –
COc1cc([C@@H]2c3cc4c(cc3[C@@H](O[C@@H]3O[C@@H]5CO[C@@H](C)O[C@H]5[C@H](O)[C@H]3O)[C@H]3COC(=O)[C@H]23)OCO4)cc(OC)c1O [ETOPOSIDE] | 10 | 0 | MVO | 1 week - 5 weeks | 0 | 1 | 24 | 4 | 0 | 50 | 5 | 0 | 0 | – | – | – | – | – | – | – | Hepatotoxicity (cytolytic) ([8]; Liver): 2; Hepatotoxicity (mechanism) ([11]; Liver): Dose-dependant; Hepatotoxicity (granulomatous hepatitis) ([12]; Liver): 0; Hepatotoxicity (choleostasis) ([15]; Liver): 2
O=C(c1cc(O)c(O)c(O)c1)c1ccc(O)c(O)c1O [EXIFONE] | 0 | 0 | AC_ANTI-ML/-N | 3 weeks - 8 months | 0 | – | 0 | 9 | 0 | – | – | 0 | 0 | 0 | 9 | Allergic, Toxic | 0 | 0 | 4 | 0 | –
COCCCC/C(=N\OCCN)c1ccc(C(F)(F)F)cc1 [FLUVOXAMINE] | 0 | 0 | SURDOSAGE | 4 days - 4 months | 0 | – | 5 | 3 | 0 | – | – | 0 | 0 | 0 | 1 | Dose-dependant | 0 | 0 | 0 | 2 | –
CC(=O)O[C@H]1C[C@@]2(C)[C@@H](C[C@@H](O)[C@H]3[C@@]4(C)CC[C@@H](O)[C@@H](C)[C@@H]4CC[C@@]32C)/C1=C(\CCC=C(C)C)C(=O)O [FUSIDIC ACID] | 0 | 0 | HYPERBILIRUBINEMIE | 2 days - 2 months | 0 | – | 12 | 19 | 0 | – | – | 0 | 0 | 34 | 0 | Dose-dependant | 0 | 50 | 0 | 2 | –
COc1c(N2CCNC(C)C2)c(F)cc2c(=O)c(C(=O)O)cn(C3CC3)c12 (stereo not drawn) [GATIFLOXACIN] | 0 | 0 | CHOLESTASE_PROLONGEE DUCTOPENIE | 2 days - 8 days | 1 | – | 18 | 3 | 0 | – | – | 0 | 2 | 0 | 2 | Allergic | 0 | 6.5 | 1 | 2 | –
Cc1ccc(C)c(OCCCC(C)(C)C(=O)O)c1 [GEMFIBROZIL] | 0 | 0 | I/LOVASTATINE | 9 days - 12 days | 0 | 0 | 24 | 1 | 0 | 10 | 0 | 0 | 1 | – | 1 | Dose-dependant | 0 | – | – | 0 | –
CCC(C)n1ncn(-c2ccc(N3CCN(c4ccc(OCC5COC(Cn6cncn6)(c6ccc(Cl)cc6Cl)O5)cc4)CC3)cc2)c1=O (stereo not drawn) [ITRACONAZOLE] | 0 | 0 | CHOLANGITE DUCTOPENIE HNF | 5 days - 7 months | 0 | – | 55 | 18 | 0 | – | – | 1 | 1 | 30 | 10 | Dose-dependant | 0 | 91.7 | 1 | 10 | –
